The source of these data is publication PMC9974506 (Proceedings of the National Academy of Sciences of the …, 2023).

For this experiment, the target named is T1, BRTNaC1 (broad-range thermal receptor 1) (Scolopendra mutilans, UniProt A0ABF7PQ77).
T1 sequence (A0ABF7PQ77 1-431): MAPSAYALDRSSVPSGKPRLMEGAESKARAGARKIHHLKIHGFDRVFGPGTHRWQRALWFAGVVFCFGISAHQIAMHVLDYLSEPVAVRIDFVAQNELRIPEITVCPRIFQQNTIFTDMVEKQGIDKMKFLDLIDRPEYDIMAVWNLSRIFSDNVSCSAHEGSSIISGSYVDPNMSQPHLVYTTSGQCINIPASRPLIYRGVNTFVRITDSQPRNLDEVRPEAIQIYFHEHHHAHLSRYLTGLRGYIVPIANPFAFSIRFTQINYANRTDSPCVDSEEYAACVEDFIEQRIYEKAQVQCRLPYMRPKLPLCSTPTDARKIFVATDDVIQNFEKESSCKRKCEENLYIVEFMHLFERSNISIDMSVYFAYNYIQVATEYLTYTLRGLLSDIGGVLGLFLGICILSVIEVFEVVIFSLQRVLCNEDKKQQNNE
The experiment is described as follows: patch clamp, transfected HEK293 cells, heat-activated current, Hill fit. Type of experiment: cell-based.

The compound `C[C@]12CC[C@H]3[C@@H](CCC4=CC(=O)CC[C@@]43C)[C@@H]1CC[C@@H]2O` [testosterone] showed an IC50 of 3.8 ± 1.1 µM.

One may read the IC50 as the concentration that gives 50% inhibition. A low value points to greater potency in that assay.
